{
  "source": "paper PMC8001104",
  "about": "“Repurposing of Some Natural Product Isolates as SARS-COV-2 Main Protease Inhibitors via In Vitro Cell Free and Cell-Based Antiviral Assessments and Molecular Modeling Approaches” (Pharmaceuticals, 2021)",
  "key": {"SARS-CoV-2 3CL Protease": {"target": "SARS-CoV-2 3CL Protease (Severe acute respiratory syndrome coronavirus 2, UniProt P0DTD1)", "test": "biochemical", "settings": "for % inhibition: 100 µM"}, "Cytotoxicity assay (MTT)": {"test": "Cytotoxicity assay (MTT)", "format": "cell-based", "settings": "African green monkey, VERO-E6 cells", "method": "The cytotoxic activity of the tested compounds was tested in VERO-E6 cells by using the 3-(4, 5-dimethylthiazol-2-yl)-2, 5-diphenyltetrazolium bromide (MTT) method with minor modifications. Briefly, the cells were seeded in 96 well-plates (100 µL/well at a density of 3 × 10^5 cells/mL) and incubated for 24 h at 37 °C in 5% CO2. After 24 h, cells were treated with various concentrations of the tested compounds in triplicates. 24 h later, the supernatant was discarded, and cell monolayers were washed with sterile 1× phosphate buffer saline (PBS) 3 times and MTT solution (20 µL of 5 mg/mL stock solution) was added to each well and incubated at 37 °C for 4 h followed by medium aspiration. In each well, the formed formazan crystals were dissolved with 200 µL of acidified isopropanol (0.04 M HCl in absolute isopropanol = 0.073 mL HCL in 50 mL isopropanol). Absorbance of formazan solutions was measured at λ max 540 nm with 620 nm as a reference wavelength using a multi-well plate reader. The percentage of cytotoxicity compared to the untreated cells was determined with the following equation."}, "[1]": {"parameters": "method as in PMID 31468636", "settings": "dose of 600 mg, healthy volunteers, cited from earlier work"}, "[2]": {"tested_on": "SARS-CoV-2 (hCoV-19/Egypt/NRC-03/2020)", "test": "Antiviral IC50 determination, reduction of virus-induced cytopathic effect in Vero-E6 cells (crystal violet)", "format": "cell-based"}, "[3]": {"settings": "100 µM concentration, FRET assay, read-out: % inhibition"}, "[4]": {"settings": "SARS COV-2 viral main protease, FRET assay, read-out: IC50"}, "[5]": {"settings": "100 µM concentration, FRET assay"}},
  "note": "Read-outs that look alike come from different tables or passages of the source.",
  "data": [
    {"smiles": "C[C@@H]1O[C@@H](O[C@@H]2[C@@H](O)[C@H](OCCc3ccc(O)c(O)c3)O[C@H](CO)[C@H]2OC(=O)/C=C/c2ccc(O)c(O)c2)[C@H](O)[C@H](O)[C@H]1O", "note": "[Compound 1, Acteoside]", "values": [
      {"measurement": "IC50", "setting": "SARS-CoV-2 3CL Protease", "value": 43, "unit": "nM"},
      {"measurement": "inhibition at 100 µM", "setting": "SARS-CoV-2 3CL Protease; [3]", "value": 75.8, "unit": "%"}
    ]},
    {"smiles": "O=C(O)c1cc(O)c2c(c1)[C@@H]([C@H]1c3cc(C(=O)O)cc(O)c3C(=O)c3c(O[C@@H]4O[C@H](CO)[C@@H](O)[C@H](O)[C@H]4O)cccc31)c1cccc(O[C@@H]3O[C@H](CO)[C@@H](O)[C@H](O)[C@H]3O)c1C2=O", "note": "[Compound 2, Sennoside B]", "values": [
      {"measurement": "inhibition at 100 µM", "setting": "SARS-CoV-2 3CL Protease", "value": 78.5, "unit": "%"}
    ]},
    {"smiles": "O=C(c1cc(O)cc(O)c1)c1c(O)cc(O)cc1O", "note": "[Compound 3, 2,3′,4,5′,6-Pentahydroxy benzophenone]", "values": [
      {"measurement": "inhibition at 100 µM", "setting": "SARS-CoV-2 3CL Protease; [3]", "value": 87.9, "unit": "%"},
      {"measurement": "IC50", "setting": "SARS-CoV-2 3CL Protease; [4]", "value": 102, "unit": "nM"}
    ]},
    {"smiles": "COc1ccc(-c2cc(=O)c3c(O)cc(O)cc3o2)cc1Oc1ccc(-c2cc(=O)c3c(O)cc(O)cc3o2)cc1", "note": "[Compound 4, Ochnaflavone-4′-methyl ether]", "values": [
      {"measurement": "% inhibition", "setting": "SARS-CoV-2 3CL Protease; [5]", "value": 53.22, "unit": "%"},
      {"measurement": "inhibition at 100 µM", "setting": "SARS-CoV-2 3CL Protease; [3]", "value": 53, "unit": "%"}
    ]},
    {"smiles": "O=C1C[C@@H](c2ccc(O)cc2)Oc2cc(O)cc(O)c21", "note": "[Compound 5, Naringenin]", "values": [
      {"measurement": "CC50 at 24 h", "setting": "Cytotoxicity assay (MTT)", "value": 179, "unit": "µg/mL"},
      {"measurement": "IC50", "setting": "SARS-CoV-2 3CL Protease", "value": 92, "unit": "nM"},
      {"measurement": "inhibition at 100 µM", "setting": "SARS-CoV-2 3CL Protease", "value": 97.9, "unit": "%"},
      {"measurement": "toxicity", "setting": "[1]", "value": "without relevant toxicity"},
      {"measurement": "Cmax", "setting": "[1]; read-out: serum Cmax", "value": "~50", "unit": "µM"},
      {"measurement": "IC50", "setting": "[2]; Severe acute respiratory syndrome coronavirus 2, Vero C1008, 72 h, read-out: IC50 (anti-SARS-CoV-2)", "value": 28.3, "unit": "µg/mL"},
      {"measurement": "selectivity index (CC50/IC50)", "setting": "[2]; Vero-E6 cells", "value": 6.3}
    ]},
    {"smiles": "O=c1cc(-c2ccc(O)cc2)oc2cc(OC3O[C@H](CO)[C@@H](O)[C@H](O)[C@H]3O)cc(O)c12", "note": "(stereo partly drawn) [Compound 6, Apigenin-7-O-β-D-glucoside]", "values": [
      {"measurement": "inhibition at 100 µM", "setting": "SARS-CoV-2 3CL Protease; [3]", "value": 83.1, "unit": "%"},
      {"measurement": "IC50", "setting": "SARS-CoV-2 3CL Protease; [4]", "value": 74, "unit": "nM"}
    ]},
    {"smiles": "CC(C)C(=O)NCCC1(O)c2scnc2-c2nccc3c2C1Nc1ccccc1-3", "note": "(centres unmarked) [Compound 7, Sagitol C]", "values": [
      {"measurement": "inhibition at 100 µM", "setting": "SARS-CoV-2 3CL Protease", "value": 27, "unit": "%"}
    ]},
    {"smiles": "O=C(c1ccc(O)c(O)c1)c1c(O)cc(O)cc1OC1OC(CO)C(O)C(O)C1O", "note": "[Compound 8, Maclurin-6-O-β-D-glucopyranoside (Rhodanthenone)]", "values": [
      {"measurement": "inhibition at 100 µM", "setting": "SARS-CoV-2 3CL Protease", "value": 23.2, "unit": "%"}
    ]},
    {"smiles": "C[C@@H]1O[C@@H](O[C@@H]2[C@@H](O)[C@H](OCCc3ccc(O)c(O)c3)O[C@H](COC(=O)/C=C/c3ccc(O)c(O)c3)[C@H]2O)[C@H](O)[C@H](O)[C@H]1O", "note": "[Compound 15, Iso-Acteoside]", "values": [
      {"measurement": "inhibition at 100 µM", "setting": "SARS-CoV-2 3CL Protease", "value": 24.6, "unit": "%"}
    ]},
    {"smiles": "O=c1c(O)c(-c2ccc(O)cc2)oc2cc(OC3OC(CO)C(O)C(O)C3O)cc(O)c12", "note": "[Compound 16, Kaempferol-7-O-β-D-glucoside]", "values": [
      {"measurement": "inhibition at 100 µM", "setting": "SARS-CoV-2 3CL Protease", "value": 23.3, "unit": "%"}
    ]},
    {"smiles": "CC1=CC(=O)C(C(C)C)=CC1=O", "note": "[Compound 17, Thymoquinon]", "values": [
      {"measurement": "% inhibition", "setting": "SARS-CoV-2 3CL Protease; [5]", "value": 63.21, "unit": "%"},
      {"measurement": "inhibition at 100 µM", "setting": "SARS-CoV-2 3CL Protease; [3]", "value": 63, "unit": "%"}
    ]},
    {"smiles": "C/C=C1/[C@H](O[C@@H]2O[C@H](CO)[C@@H](O)[C@H](O)[C@H]2O)OC=C(C(=O)OC)[C@H]1CC(=O)OCCc1ccc(O)c(O)c1", "note": "[Compound 18, Oleuropein]", "values": [
      {"measurement": "inhibition at 100 µM", "setting": "SARS-CoV-2 3CL Protease", "value": 26.4, "unit": "%"}
    ]}
  ]
}
